Laboratory results as given in patent US20210179577A1, “AROMATIC SULFONAMIDE DERIVATIVES FOR THE TREATMENT OF ISCHEMIC STROKE” (Bayer Aktiengesellschaft, priority 2017, published 2021).

Key:
rat P2X4 = target: T1, rat P2X4 (Rattus norvegicus, UniProt P51577); test: FLIPR assay, rat P2X4 1321N1 Astrocytoma Cells; assay type: cell-based; conditions: agonist Mg-ATP at EC80
T1 construct: expressed in transfected cells; host or cells: 1321N1 astrocytoma cells
T1 sequence (P51577 1-388): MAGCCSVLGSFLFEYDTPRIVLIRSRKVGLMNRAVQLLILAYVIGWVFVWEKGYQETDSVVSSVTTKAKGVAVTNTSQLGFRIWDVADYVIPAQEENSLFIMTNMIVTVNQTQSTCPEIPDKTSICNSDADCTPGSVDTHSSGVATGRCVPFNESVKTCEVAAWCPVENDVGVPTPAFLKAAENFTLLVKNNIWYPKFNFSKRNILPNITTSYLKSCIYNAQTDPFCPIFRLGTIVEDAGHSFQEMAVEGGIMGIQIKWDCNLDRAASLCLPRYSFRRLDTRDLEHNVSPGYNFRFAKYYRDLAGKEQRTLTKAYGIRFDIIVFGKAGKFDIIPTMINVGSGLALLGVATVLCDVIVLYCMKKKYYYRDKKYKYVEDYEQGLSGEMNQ
Protocol: (§1) 1321N1 Astrocytoma cells stably expressing human P2X4 or rat P2X4 or mouse P2X4 were plated in Collagen ITO-treated microplate at a seeding density of 10000 cells/well and incubated overnight. P2X4 function was assessed by measuring intracellular calcium changes using the calcium-chelating dye Fluo8-AM (Molecular Devices) on a fluorescent imaging plate reader (FLEX/FLIPR station; Molecular Devices). On the day of the assay, the medium was removed and the cells were incubated for 30 min at […] and 5% CO2 in 30 μL of dye buffer (Hank's balanced salt solution, 10 mM HEPES, 1.8 mM CaCl2, 1 mM MgCl2, 2 mM probenecid, 5 mM D-glucose monohydrate, 5 μM Fluo8-AM, pH=7.4). Compounds diluted in probenecid buffer (Hank's balanced salt solution, 10 mM HEPES, 1.8 mM CaCl2, 1 mM MgCl2, 2 mM probenecid, 5 mM D-glucose monohydrate, pH=7.4) were added in a volume of 10 μL and allowed to incubate for 30 min at room temperature. The final assay DMSO concentration was 0.25%. The agonist, Mg-ATP (Sigma), was added in a volume of 10 μL at a concentration representing the EC80 value. EC80 was determined to be 0.5 μM for human and mouse P2X4 and 5 μM for rat P2X4. The fluorescence was measured for an interval of 120 sec at 2 sec intervals. The excitation and emission wavelengths used to monitor fluorescence were 470-495 nm and 515-575 nm, respectively. The data was analyzed based on the increase in peak relative fluorescence units (RFU) compared to the basal fluorescence and the data was normalized to the agonist control. The compounds were tested in triplicates per plate and mean values were plotted in Excel XLFit to determine IC50 values, percentage of maximal inhibition and the Hill coefficients.

human P2X4 = target: T2, human P2X4 (Homo sapiens, UniProt Q99571); test: FLIPR assay, human P2X4 1321N1 Astrocytoma Cells; assay type: cell-based; set-up: expressed in transfected cells; conditions: agonist Mg-ATP at EC80
T2 sequence (Q99571 1-388): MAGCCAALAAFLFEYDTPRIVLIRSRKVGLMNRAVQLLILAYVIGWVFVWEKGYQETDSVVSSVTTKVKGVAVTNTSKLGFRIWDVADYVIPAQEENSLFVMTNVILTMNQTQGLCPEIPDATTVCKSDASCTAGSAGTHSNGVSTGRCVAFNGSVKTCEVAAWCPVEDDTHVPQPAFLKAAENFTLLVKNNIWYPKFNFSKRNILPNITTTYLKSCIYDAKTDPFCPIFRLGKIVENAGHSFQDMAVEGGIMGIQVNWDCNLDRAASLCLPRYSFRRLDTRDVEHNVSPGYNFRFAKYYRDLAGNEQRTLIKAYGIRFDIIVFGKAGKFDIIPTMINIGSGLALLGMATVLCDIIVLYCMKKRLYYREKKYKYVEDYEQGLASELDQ
Protocol: as §1

Sprague Dawley (SD) rats = test: tMCAO-Induced Ischemic Stroke Model in Rats; assay type: in vivo, rat; conditions: per os twice a day for seven days, from day 8 on, p<5% vs vehicle treated tMCAO-group
Protocol: Transient middle cerebral artery occlusion (tMCAO) was performed in approximately 3 months old male Sprague Dawley (SD) rats according to the method described by Schmid-Elsaesser et al. [Stroke. 1998; 29(10):2162-2170]. In particular, the right common carotid artery (CCA) was exposed through a midline neck incision and carefully dissected free from surrounding nerves and fascia—from its bifurcation to the base of the skull. […] The ECA was dissected further distally and coagulated along with the terminal lingual and maxillary artery branches, just before their bifurcation. The internal carotid artery (ICA) was isolated and carefully separated from the adjacent vagus nerve, and the pterygopalatine artery was ligated close to its origin with a 5-0 nylon suture. Thereafter, a 4-0 silk suture was tied loosely around the mobilized ECA stump, and a 4 cm length of Doccol 4-0 monofilament suture (coated with silicone) was inserted through the proximal ECA into the ICA and thence into the circle of Willis, effectively occluded the MCA. The surgical wound was closed and the animals were returned to their cages for recovery from anesthesia. Two hours after occlusion, rats were re-anesthetized and the monofilament was withdrawn to allow reperfusion. The wound was closed again and rats were returned to their cages.
Four groups of rats with 12-15 rats per group were included into the study. […]

IC50 (rat P2X4) | Rat P2X4 1321N1 Astrocytoma Cells (FLIPR Assay) avg Efficacy (rat P2X4) | Human P2X4 1321N1 Astrocytoma Cells (FLIPR Assay) avg Efficacy (human P2X4) | IC50 (human P2X4) | SMILES | modified neurologic severity score (mNSS) (Sprague Dawley (SD) rats)
71 nM | 57% | 60% | 57 nM | NS(=O)(=O)c1cc(NC(=O)Cc2ccccc2Cl)ccc1-n1cc(C(F)(F)F)cn1 [Example 19, 2-(2-Chlorophenyl)-N-{3-sulfamoyl-4-[4-(trifluoromethyl)-1H-pyrazol-1-yl]phenyl}acetamide] | 
308 nM | 87% | 83% | 64 nM | N#Cc1cnn(-c2ccc(NC(=O)Cc3ccccc3Cl)cc2S(N)(=O)=O)c1 [Example 39, 2-(2-Chlorophenyl)-N-[4-(4-cyano-1H-pyrazol-1-yl)-3-sulfamoylphenyl]acetamide] | significant smaller mNSS than the vehicle treated tMCAO-group
325 nM | 99% | 80% | 46 nM | NS(=O)(=O)c1cc(NC(=O)Cc2ccccc2Cl)ccc1-c1cnn(C(F)F)c1 [Example 326, 2-(2-Chlorophenyl)-N-{4-[1-(difluoromethyl)-1H-pyrazol-4-yl]-3-sulfamoylphenyl}acetamide] | 
